Results published in patent US9908831B2, “Resist composition, method for forming resist pattern, polyphenolic compound for use in the composition, and alcoholic compound that can be derived therefrom” (Mitsubishi Gas Chemical Company, Inc., priority 2011, dated 2018).

How the values were obtained:
Assay type in all cases: physicochemical
[1] = Solubility of compound in methyl ethyl ketone (MEK); conditions: dissolution amount in MEK at 23° C., visual
Experimental: (1) Solubility of Compound in Methyl Ethyl Ketone (MEK)
(§1) The solubility of the compound in MEK was evaluated according to the following standard using the dissolution amount in MEK at 23° C. For the measurement of the dissolution amount, the compound was precisely weighed in a test tube at 23° C.; and the target solvent was added to the compound so that a predetermined concentration of the liquid to be obtained was set; a ultrasonic wave was applied to the liquid in an ultrasonic washing machine for 30 minutes; and the state of the resulting liquid was visually evaluated.
Evaluation A: 50% by weight or more
Evaluation B: 10% by weigh or more and less than 50% by weight
Evaluation C: less than 10% by weight

[2] = Thermal decomposition temperature by DSC; conditions: 10° C./min to 500° C., nitrogen gas stream
Experimental: (3) Thermal Decomposition Temperature
The apparatus EXSTAR6000DSC (trade name) manufactured by SII NanoTechnology Inc. was used. About 5 mg of each sample was placed in a non-sealed container made of aluminum, and the temperature was raised to 500° C. at the rate of temperature rise of 10° C./min in a nitrogen gas stream (30 mL/min). The temperature corresponding to a descending peak appeared in the baseline was defined as the thermal decomposition temperature.

[3] = Glass transition temperature by DSC; conditions: 10° C./min to 300° C., second heating after quench, nitrogen gas stream
Experimental: (4) Glass Transition Temperature
The apparatus EXSTAR6000DSC (trade name) manufactured by SII NanoTechnology Inc. was used. About 5 mg of each sample was placed in a non-sealed container made of aluminum, and the temperature was raised to 300° C. at the rate of temperature rise of 10° C./min in a nitrogen gas stream (30 mL/min). After the non-sealed container made of aluminum was quenched, again the temperature was raised to 300° C. at the rate of temperature rise of 10° C./min in a nitrogen gas stream (30 mL/min), thereby performing DSC measurement. The temperature corresponding to the middle point (where the specific heat was changed into the half) of a region in which a discontinuous portion appeared in the baseline was defined as the glass transition point.

[4] = Solubility test of compound in safe solvent; conditions: 23° C., visual
Experimental: (2) Solubility Test of Compound in Safe Solvent
as §1, with “PGME and PGMEA” for “MEK”, “each solvent.” for “MEK at 23° C.”
A: 5.0% by weight≦dissolution amount
B: 3.0% by weight≦dissolution amount<5.0% by weight
C: dissolution amount<3.0% by weight

| Compound | solubility in MEK [1] | thermal decomposition temperature [2] [°C] | glass transition point [3] [°C] | Solubility test of compound in safe solvent PGME [4] | Solubility test of compound in safe solvent PGMEA [4] |
| --- | --- | --- | --- | --- | --- |
| Oc1ccc2c(C(c3ccc(-c4ccccc4)cc3)c3c(O)ccc4cc(O)ccc34)c(O)ccc2c1 [BisN-1] | B (Evaluation B: 10% by weigh or more and less than 50% by weight) | 250 | 130 | A (A: 5.0% by weight≦dissolution amount) | A (A: 5.0% by weight≦dissolution amount) |
| Oc1ccc2ccc(O)c(C(c3ccc(-c4ccccc4)cc3)c3c(O)ccc4ccc(O)cc34)c2c1 [BisN-2] | B (Evaluation B: 10% by weigh or more and less than 50% by weight) | 250 | 130 | A (A: 5.0% by weight≦dissolution amount) | A (A: 5.0% by weight≦dissolution amount) |
| Oc1cccc2c(O)c(C(c3ccc(-c4ccccc4)cc3)c3ccc4c(O)cccc4c3O)ccc12 [BisN-3] | B (Evaluation B: 10% by weigh or more and less than 50% by weight) | 250 | 130 | A (A: 5.0% by weight≦dissolution amount) | A (A: 5.0% by weight≦dissolution amount) |
| Oc1ccc2c(O)cccc2c1C(c1ccc(-c2ccccc2)cc1)c1c(O)ccc2c(O)cccc12 [BisN-4] | B (Evaluation B: 10% by weigh or more and less than 50% by weight) | 250 | 130 | A (A: 5.0% by weight≦dissolution amount) | A (A: 5.0% by weight≦dissolution amount) |
| Oc1ccc2ccc(C(c3ccc(-c4ccccc4)cc3)c3ccc4ccc(O)cc4c3O)c(O)c2c1 [BisN-5] | B (Evaluation B: 10% by weigh or more and less than 50% by weight) | 250 | 130 | A (A: 5.0% by weight≦dissolution amount) | A (A: 5.0% by weight≦dissolution amount) |
| Oc1cc2ccccc2c(C(c2ccc(-c3ccccc3)cc2)c2c(O)c(O)cc3ccccc23)c1O [BisN-6] | B (Evaluation B: 10% by weigh or more and less than 50% by weight) | 250 | 130 | A (A: 5.0% by weight≦dissolution amount) | A (A: 5.0% by weight≦dissolution amount) |
| Oc1ccc2c(C(c3cccc4ccccc34)c3c(O)ccc4cc(O)ccc34)c(O)ccc2c1 [BisN-7] | B (Evaluation B: 10% by weigh or more and less than 50% by weight) | 255 | 135 | A (A: 5.0% by weight≦dissolution amount) | A (A: 5.0% by weight≦dissolution amount) |
| Oc1ccc2c(C(c3c(O)ccc4cc(O)ccc34)c3cc4ccccc4c4ccccc34)c(O)ccc2c1 [BisN-8] | B (Evaluation B: 10% by weigh or more and less than 50% by weight) | 255 | 140 | A (A: 5.0% by weight≦dissolution amount) | A (A: 5.0% by weight≦dissolution amount) |
| Oc1ccc2c(C(c3c(O)ccc4cc(O)ccc34)c3ccc4ccc5cccc6ccc3c4c56)c(O)ccc2c1 [BisN-9] | B (Evaluation B: 10% by weigh or more and less than 50% by weight) | 260 | 140 | A (A: 5.0% by weight≦dissolution amount) | A (A: 5.0% by weight≦dissolution amount) |
| Oc1ccc2c(C3(c4c(O)ccc5cc(O)ccc45)CCCCC3)c(O)ccc2c1 [BisN-10] | B (Evaluation B: 10% by weigh or more and less than 50% by weight) | 210 | 100 | A (A: 5.0% by weight≦dissolution amount) | A (A: 5.0% by weight≦dissolution amount) |
| Oc1ccc2c(C3(c4c(O)ccc5cc(O)ccc45)c4ccccc4-c4ccccc43)c(O)ccc2c1 [BisN-11] | B (Evaluation B: 10% by weigh or more and less than 50% by weight) | 250 | 135 | A (A: 5.0% by weight≦dissolution amount) | A (A: 5.0% by weight≦dissolution amount) |
| Oc1ccc2c(C(c3ccc(C(c4c(O)ccc5cc(O)ccc45)c4c(O)ccc5cc(O)ccc45)cc3)c3c(O)ccc4cc(O)ccc34)c(O)ccc2c1 [BisN-12] | B (Evaluation B: 10% by weigh or more and less than 50% by weight) | 245 | 130 | A (A: 5.0% by weight≦dissolution amount) | A (A: 5.0% by weight≦dissolution amount) |
| Oc1ccc2c(C(c3ccc(-c4ccc(C(c5c(O)ccc6cc(O)ccc56)c5c(O)ccc6cc(O)ccc56)cc4)cc3)c3c(O)ccc4cc(O)ccc34)c(O)ccc2c1 [BisN-13] | B (Evaluation B: 10% by weigh or more and less than 50% by weight) | 245 | 130 | A (A: 5.0% by weight≦dissolution amount) | A (A: 5.0% by weight≦dissolution amount) |
| Oc1ccc2c(C(c3cc(C(c4c(O)ccc5cc(O)ccc45)c4c(O)ccc5cc(O)ccc45)cc(C(c4c(O)ccc5cc(O)ccc45)c4c(O)ccc5cc(O)ccc45)c3)c3c(O)ccc4cc(O)ccc34)c(O)ccc2c1 [BisN-14] | B (Evaluation B: 10% by weigh or more and less than 50% by weight) | 245 | 130 | A (A: 5.0% by weight≦dissolution amount) | A (A: 5.0% by weight≦dissolution amount) |
| Oc1cc(O)c2cc1C(c1ccc(C3CCCCC3)cc1)c1cc(c(O)cc1O)C(c1ccc(C3CCCCC3)cc1)c1cc(c(O)cc1O)C(c1ccc(C3CCCCC3)cc1)c1cc(c(O)cc1O)C2c1ccc(C2CCCCC2)cc1 (stereo not shown) [CR-1, reference compound] | – | – | – | B (B: 3.0% by weight≦dissolution amount<5.0% by weight) | C (C: dissolution amount<3.0% by weight) |
| OCCOc1ccc2c3c(ccc2c1)Oc1ccc2cc(OCCO)ccc2c1C3c1ccc(-c2ccccc2)cc1 [Example 29] | – | 375 | 132 | – | – |
| Cc1cc(C(c2ccc3ccc(C(c4cc(C)c(O)c(C)c4C)c4cc(C)c(O)c(C)c4C)cc3c2)c2cc(C)c(O)c(C)c2C)c(C)c(C)c1O [TetP-1, reference compound] | – | – | – | A (A: 5.0% by weight≦dissolution amount) | A (A: 5.0% by weight≦dissolution amount) |
| Oc1ccc2c3c(ccc2c1)Oc1ccc2cc(O)ccc2c1C3c1ccc(-c2ccccc2)cc1 [XBisN-1] | A (Evaluation A: 50% by weight or more) | 410 | 152 | A (A: 5.0% by weight≦dissolution amount) | A (A: 5.0% by weight≦dissolution amount) |
| Oc1ccc2ccc3c(c2c1)C(c1ccc(-c2ccccc2)cc1)c1c(ccc2ccc(O)cc12)O3 [XBisN-2] | B (Evaluation B: 10% by weigh or more and less than 50% by weight) | 410 | 152 | A (A: 5.0% by weight≦dissolution amount) | A (A: 5.0% by weight≦dissolution amount) |
| Oc1cccc2c3c(ccc12)C(c1ccc(-c2ccccc2)cc1)c1ccc2c(O)cccc2c1O3 [XBisN-3] | B (Evaluation B: 10% by weigh or more and less than 50% by weight) | 410 | 152 | A (A: 5.0% by weight≦dissolution amount) | A (A: 5.0% by weight≦dissolution amount) |
